Experimental data: patent publication EP0164204A1, “Novel pharmaceutically useful pyrimidines” (FISONS plc, priority 1984, dated 1985)

Tested on: immune response to oxazolone
Experiment: Rescue of the cyclophosphamide-inhibited delayed contact response to oxazolone in mice (Example A, b)
Assay type: in vivo
Settings: Mus musculus, ip, 48 h; cyclophosphamide alone, 200mg/kg intraperitoneal, two days after sensitisation with oxazolone; C57B1 mice

O=P1(N(CCCl)CCCl)NCCCO1 (stereo not shown) [cyclophosphamide]
inhibition at 200 mg/kg: 64%
